Experimental data published in US6235707A, “Anticoagulant peptidyl-arginine aldehyde derivatives” (Gyogyszerkutato Intezet Kft., priority 1996, dated 2001).
Like-named read-outs stand apart in the source and are kept apart here. Square brackets hold non-standard residues; d marks the D form. Peptide text beside a SMILES is read from it. * marks the point of attachment. dCba = N[C@H](CC1CCC1)C(=O)O; Moc = COC(=O)*

Experiments:
citrate plasma [1] = experiment: activated partial thromboplastin time (APTT) plasma clotting test; type: biochemical
Experimental: (§1) Anticoagulant activity (i.e. inhibition of the proteolytic reactions in the process) is measured by anticoagulant tests, e.g. in the thrombin time (TT), activated partial thromboplastin time (APTT) and prothrombin time (PT) tests [E. J. W. Bovie et al., Mayo Clinic Laboratory Manual of Haemostasis; W. B. Saunders Co., Philadelphia (1971)]. Plasma, inhibited in spontaneous coagulation, e.g. citrate-plasma, is made to coagulate and the required coagulation time is measured. Upon the action of anticoagulants the coagulation time is prolonged proportionally to the inhibition of the reaction(s) in the process. The anticoagulant effect can be characterised by the substance concentration required to prolong the coagulation time twofold compared to the control (IC50). The effect of anticoagulants on individual coagulant proteases is measured by the amidolytic method [R. Lottenberg et al., Methods in Enzymol. 80, 341 (1981); G. Cleason, Blood Coagulation and Fibrinolysis 5, 411 (1994)]. The isolated active factor (e.g. thrombin, fXa) and its chromogen or fluorogen peptide-amide substrate are reacted in the presence or absence of the inhibitor, resp. The enzyme inhibiting action is characterised by the inhibitory constant (IC50) measured during amidolysis.
(§2) In the TT test coagulation is initiated by the thrombin added to the citrate plasma. In the system 22 pmol/ml of thrombin is functioning and its inhibition can be measured on the fibrinogen (one of the natural substrates of thrombin) in the presence of plasma components. In the APTT and PT tests the full coagulation process takes place. Depending on the activator fX is activated either by the extrinsic or the intrinsic pathway. The generated fXa activates prothrombin to thrombin which, in turn, triggers plasma coagulation. The coagulation time is prolonged if the enzymes or one of them is inhibited by the inhibitor. In the APTT and PT tests at most 40 pmol/ml Xa can be generated (this is the full amount of factor X present in both systems) while 150 pmol/ml (APTT) and 350 pmol/ml (PT) of thrombin are generated [B. Kaiser et al., Thromb. Res. 65, 157 (1992)].
(§3) The in vitro anticoagulant effects of the compounds of general formula (I) was measured by the prothrombin time (PT), activated partial thromboplastin time (APTT) and thrombin time (TT) tests [D. Bagdy et al., Thromb. Haemost. 67, 325 (1992)]. The fxa-inhibiting effect of the compounds was also determined using the Bz-Ile-Glu-Gly-Arg-pNA chromogen substrate (see method M6).

citrate plasma [2] = experiment: prothrombin time (PT) plasma clotting test; type: biochemical
Experimental: as §1, §2, §3

urokinase (UK) = urokinase (UK) (Homo sapiens, UniProt P00749); experiment: fibrin-plate method, plasmin formation induced by urokinase; type: biochemical; details: for IC50: fibrin plate, hydrolysed area reduced to 50% of control; for B: relative efficiency, UK: related to the activity of C1 (1/IC50 = 1)
Text: (§4) The inhibitory effect of the new compounds of the invention on plasmin (PL) as well as on plasmin formation induced by tissue plasminogen activator (tPA) and urokinase (UK) was examined by the fibrin-plate method [D. Bagdy et al.: Thromb. Haemost. 67, 325 (1992)]. Compounds C1 and C5 served as controls. […] V. Jackson et al.: J. Cardiovasc. Pharmacol. 21, 587 (1993))]. In Table 4 the results obtained with the new compounds 1 and 2 as well as those with controls C1 and C5 are presented as an example.

thrombin = thrombin (Homo sapiens, UniProt P00734); experiment: thrombin time (TT) plasma clotting test; type: biochemical
Experimental: as §1, §2, §3

[3] = molecular target: tissue plasminogen activator (tPA) (Homo sapiens, UniProt P00750); experiment: fibrin-plate method, plasmin formation induced by tPA; type: biochemical; details: for IC50: fibrin plate, hydrolysed area reduced to 50% of control; for B: relative efficiency, tPA: related to the activity of C1 (1/IC50 = 1)
Text: as §4

isolated human fXa = molecular target: T1, isolated human fXa (Homo sapiens, UniProt P00742); experiment: fXa inhibition in solution, amidolytic method on Bz-Ile-Glu-Gly-Arg-pNA chromogen substrate (Method M6); type: biochemical; details: for IC50: isolated human fXa, Bz-Ile-Glu-Gly-Arg-pNA
T1 construct: The isolated active factor (e.g. thrombin, fXa) and its chromogen or fluorogen peptide-amide substrate are reacted; purchased SIGMA
Experimental: as §1, §3
Determination of Factor Xa Inhibition in Solution on a 96-well Microtitre Plate
a) By means of phosphate buffer (0.1M sodium phosphate and 0.05M sodium chloride, pH=7.4) 1.3 E/ml solution is prepared from human factor Xa (SIGMA), and 0.1-1.0-10 and 100 μg/ml solutions from the peptide inhibitors. The Bz-Ile-Glu-Gly-Arg-pNA substrate is used in distilled water solution ([…]).
b) From the control and the peptide inhibitor solutions (3 parallel samples of each concentration) 30-30 μl aliquots are placed into the wells. 30 μl of factor Xa, 90 μl of buffer and 150 μl of substrate are added to the peptide solution and the extinction is determined after 10 min. at 405 nm. Thereafter the steps are the same as in M2/c.

[4] = molecular target: T2, fibrin gel-bound thrombin (Homo sapiens, UniProt P00734); experiment: inhibition of fibrin gel-bound thrombin (Methods M4, M5); type: biochemical; details: human fibrinogen clotted with human thrombin; Tos-Gly-Pro-Arg-pNA substrate
T2 construct: purchased SIGMA
Experimental: (§5) Plasma-clot was obtained by recalcificating platelet-rich human plasma, and fibrin gel by clotting human fibrinogen with human thrombin. For the activity measures of fXa and thrombin Z-D-Arg-Gly-Arg-pNA or Tos-Gly-Pro-Arg-pNA substrates were used in agreement with Methods M1-M3.
Preparation of Fibrin Clots
a) To each reaction vessel 200 μl of human fibrinogen (SIGMA), 25 μl of 25 NIH/E/ml human thrombin (SIGMA) and 40 μl of 100 mM CaCl2 solution is placed and the mixtures are allowed to stand for 1 hour at 20-22° C. The fibrin clots are washed with isotonic NaCl-solution (3×2 ml) under gentle stirring to remove traces of thrombin and sedimented for 5 min. The effectiveness of the washing can be checked by the method M1/c.
Determination of Inhibition of Fibrin-clot Bound Thrombin
a) 0.1-1.0-10 and 100 μg/ml solutions are made from the peptide inhibitors with Hepes/NaCl buffer (0.001 M Hepes and 0.1 M NaCl, pH=7.4).
b) Measurements are continued according to M3/b.

clot-bound thrombin = molecular target: T3, clot-bound thrombin (Homo sapiens, UniProt P00734); experiment: inhibition of plasma clot-bound thrombin (Methods M1, M3); type: biochemical; details: clot from platelet-rich human plasma; Tos-Gly-Pro-Arg-pNA substrate
T3 construct: from tissue; host or cells: clot of recalcified human platelet-rich plasma
Experimental: as §5
Preparation of Clots from Human Plasma
a) Platelet-rich plasma is prepared by centrifuging a 9:1 mixture of human blood and 3.8% sodium citrate solution for 5 min. at 240×g.
b) 200 μl platelet-rich plasma and 80 μl 40 mM CaCl2 solution are allowed to stand at room temperature for 1 hour. The thus-formed clot is washed with 6×2 ml of 0.9% NaCl solution with gentle stirring to remove the residual enzymes (thrombin and factor Xa). The washing medium is assayed for thrombin-like activity as follows:
c) To 400 μl of washing medium 100 μl of 1 mM Tos-Gly-Pro-Arg-pNA substrate solution is added, the mixture is incubated for 30 min at 37° C., then the reaction is stopped with 100 μl of 50% acetic acid. From this mixture 150 μl aliquots are applied onto a 96-well microtitre plate and the extinction coefficients are measured at 405 nm (ELISA READER SLT Laborinstrument GmbH, Austria). In case of efficient washing the extinction coefficient is smaller than 5% of that of the control.
Determination of the Inhibition of Clot-bound Thrombin
a) Solutions are made from the peptide inhibitors according to Method M2/a.
b) After draining off the washing medium the clots (Method M1) are mixed with 400 μl of peptide solution (3 parallel samples with each concentration), then the samples are incubated for 5 min. at 37° C. together with a separate 400 μl buffer serving as control. Then 100 μl […] 1 mM Tos-Gly-Pro-Arg-pNA substrate solution is added and the incubation continued for further 30 min. at 37° C. The experiment is continued according to M2/c.

plasmin (PL) = plasmin (PL) (Homo sapiens, UniProt P00747); experiment: fibrin-plate method, plasmin; type: biochemical; details: for IC50: fibrin plate, hydrolysed area reduced to 50% of control; for B: relative efficiency, PL: related to the activity of C1 (1/IC50 = 1)
Text: as §4

[5] = C. V. Jackson et al. 1993; cited from earlier work
[6] = Table 3, twofold prolongation compared to control, read-out: A: anticoagulant IC50, APTT
[7] = Table 3, twofold prolongation compared to control, read-out: A: anticoagulant IC50, PT
[8] = Table 3, twofold prolongation compared to control, read-out: A: anticoagulant IC50, TT
[9] = Table 3, read-out: B: fXa inhibiting IC50
[10] = Table 2, concentration prolonging clotting time twofold, read-out: A: anticoagulation IC50, APTT
[11] = Table 2, concentration prolonging clotting time twofold, read-out: A: anticoagulation IC50, PT
[12] = Table 2, concentration prolonging clotting time twofold, read-out: A: anticoagulation IC50, TT
[13] = Table 2, read-out: B: fXa inhibiting effect IC50

tissue plasminogen activator (tPA), sequence (P00750 36-562, species assumed): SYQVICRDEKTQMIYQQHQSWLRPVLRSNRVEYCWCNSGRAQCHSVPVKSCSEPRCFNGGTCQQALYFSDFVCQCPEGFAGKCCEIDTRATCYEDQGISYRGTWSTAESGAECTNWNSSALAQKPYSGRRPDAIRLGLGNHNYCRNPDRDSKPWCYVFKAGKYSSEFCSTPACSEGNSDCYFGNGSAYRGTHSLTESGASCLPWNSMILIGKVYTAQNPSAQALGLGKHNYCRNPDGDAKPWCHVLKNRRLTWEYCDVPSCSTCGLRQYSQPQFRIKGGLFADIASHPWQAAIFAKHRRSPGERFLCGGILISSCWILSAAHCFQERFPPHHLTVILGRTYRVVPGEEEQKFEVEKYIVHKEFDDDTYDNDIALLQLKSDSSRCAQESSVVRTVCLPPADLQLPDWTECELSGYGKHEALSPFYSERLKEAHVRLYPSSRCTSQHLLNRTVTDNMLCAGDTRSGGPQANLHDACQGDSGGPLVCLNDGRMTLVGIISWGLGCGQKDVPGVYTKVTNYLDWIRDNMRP
T1 sequence (P00742 235-488 limits assumed): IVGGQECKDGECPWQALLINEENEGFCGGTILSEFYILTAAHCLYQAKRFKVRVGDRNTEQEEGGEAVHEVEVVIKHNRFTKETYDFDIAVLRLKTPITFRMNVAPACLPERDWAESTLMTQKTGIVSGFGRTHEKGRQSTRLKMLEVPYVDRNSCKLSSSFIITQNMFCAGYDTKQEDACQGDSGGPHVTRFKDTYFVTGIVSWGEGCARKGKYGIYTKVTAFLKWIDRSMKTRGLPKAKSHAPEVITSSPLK
T1 sequence (P00742 41-179 partner limits assumed): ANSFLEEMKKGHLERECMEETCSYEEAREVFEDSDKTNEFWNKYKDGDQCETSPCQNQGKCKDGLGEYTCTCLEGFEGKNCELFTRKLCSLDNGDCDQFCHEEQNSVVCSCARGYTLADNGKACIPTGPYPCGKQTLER
plasmin (PL), sequence (P00747 581-810 limits assumed, species assumed): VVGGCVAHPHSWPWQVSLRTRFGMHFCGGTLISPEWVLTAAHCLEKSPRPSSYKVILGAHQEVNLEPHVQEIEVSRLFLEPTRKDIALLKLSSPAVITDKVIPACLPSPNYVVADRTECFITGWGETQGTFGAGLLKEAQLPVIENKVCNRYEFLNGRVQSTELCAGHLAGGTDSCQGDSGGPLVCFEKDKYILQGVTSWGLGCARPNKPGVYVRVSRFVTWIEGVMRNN
plasmin (PL), sequence (P00747 97-580 partner limits assumed, species assumed): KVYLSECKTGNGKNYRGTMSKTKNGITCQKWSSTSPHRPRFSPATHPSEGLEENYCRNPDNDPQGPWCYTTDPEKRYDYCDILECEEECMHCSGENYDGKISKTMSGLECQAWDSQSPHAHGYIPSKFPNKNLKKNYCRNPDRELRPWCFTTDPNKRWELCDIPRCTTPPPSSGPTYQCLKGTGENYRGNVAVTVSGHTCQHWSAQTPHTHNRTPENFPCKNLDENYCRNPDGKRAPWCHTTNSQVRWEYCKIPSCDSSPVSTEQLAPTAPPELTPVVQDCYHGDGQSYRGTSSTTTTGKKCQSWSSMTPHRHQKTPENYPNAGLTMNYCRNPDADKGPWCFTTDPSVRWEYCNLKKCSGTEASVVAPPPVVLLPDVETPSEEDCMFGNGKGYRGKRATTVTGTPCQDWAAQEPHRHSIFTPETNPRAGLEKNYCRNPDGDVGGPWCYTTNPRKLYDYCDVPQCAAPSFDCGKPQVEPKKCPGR

SMILES | IC50 (citrate plasma [1]; [6]) | IC50 (citrate plasma [2]; [7]) | B: relative efficiency, UK (urokinase (UK)) | IC50 (thrombin; [8]) | B: relative efficiency, tPA [3] | IC50 (isolated human fXa; [9]) | B: relative efficiency, PL (plasmin (PL)) | also measured
COC(=O)N[C@H](CC1CCC1)C(=O)N1CCC[C@H]1C(=O)N[C@H](C=O)CCCNC(=N)N [Example 2, methoxycarbonyl-3-cyclobutyl-D-alanyl-L-prolyl-L-arginine aldehyde] (Moc-[dCba]-Pro-Arg-aldehyde) | 250 nM | 1120 nM | 0.5 | 110 nM | 1.4 | 388 nM | 0.23 | IC50 (urokinase (UK)): 153000 nM; activity against UK, times lower than that of compound C5 (urokinase (UK); text b147, third of three enzymes): 39 times; IC50 [3]: 92000 nM; activity against tPA, times lower than that of compound C5 ([3]; text b147, second of three enzymes): 4.5 times; IC50 [4]: 640 nM; IC50 (clot-bound thrombin): 680 nM; IC50 (plasmin (PL)): 235000 nM; activity against PL, times lower than that of compound C5 (plasmin (PL); text b147, first of three enzymes): 3.2 times
CCOC(=O)N[C@H](Cc1ccccc1)C(=O)N1CCC[C@H]1C(=O)N[C@H](C=O)CCCNC(=N)N [Example C6, Ethoxycarbonyl-3-phenyl-D-alanyl-L-prolyl-L-arginine aldehyde] | 380 nM | 1910 nM |  | 130 nM |  | 917 nM |  | 
COC(=O)N[C@H](Cc1ccccc1)C(=O)N1CCC[C@H]1C(=O)N[C@H](C=O)CCCNC(=N)N [Example C7, Methoxycarbonyl-3-phenyl-D-alanyl-L-prolyl-L-arginine aldehyde] |  |  |  |  |  |  |  | IC50 (citrate plasma [1]; [10]): 290 nM; IC50 (citrate plasma [2]; [11]): 1960 nM; IC50 (thrombin; [12]): 200 nM; IC50 (isolated human fXa; [13]): 130 nM
CCOC(=O)NC(CC1CCCC1)C(=O)N1CCC[C@H]1C(=O)N[C@H](C=O)CCCNC(=N)N (mixture of isomers) [Example C9, Ethoxycarbonyl-3-cyclopentyl-DL-alanyl-L-prolyl-L-arginine aldehyde] | 480 nM | 1900 nM |  | 260 nM |  | 43 nM |  | 
CCOC(=O)NC(C(=O)N1CCC[C@H]1C(=O)N[C@H](C=O)CCCNC(=N)N)C1CCC1 (mixture of isomers) [Example C10, Ethoxycarbonyl-DL-cyclobutyl-glycyl-L-prolyl-L-arginine aldehyde] | 770 nM | 6150 nM |  | 880 nM |  | 82 nM |  | 
CCOC(=O)N[C@H](CC1CCCC1)C(=O)N1CCC[C@H]1C(=O)N[C@H](C=O)CCCNC(=N)N [Example 4, Ethoxycarbonyl-3-cyclopentyl-D-alanyl-L-prolyl-L-arginine aldehyde] | 240 nM | 1410 nM | 1.8 | 100 nM | 3.5 | 27 nM | 0.55 | IC50 (urokinase (UK)): 46000 nM; IC50 [3]: 38000 nM; IC50 [4]: 670 nM; IC50 (clot-bound thrombin): 490 nM; IC50 (plasmin (PL)): 98000 nM
CCOC(=O)NC(CC1CCC1)C(=O)N1CCC[C@H]1C(=O)N[C@H](C=O)CCCNC(=N)N (mixture of isomers) [Example C8, Ethoxycarbonyl-3-cyclobutyl-DL-alanyl-L-prolyl-L-arginine aldehyde] | 500 nM | 1490 nM |  | 130 nM |  | 68 nM |  | 
CC(C)(C)OC(=O)N[C@H](Cc1ccccc1)C(=O)N1CCC[C@H]1C(=O)N[C@H](C=O)CCCNC(=N)N [Example C5, BOC-D-Phe-Pro-Arg-H] |  |  | 27.3 |  | 22.0 |  | 4.5 | antifibrinolytic effect in vivo [5]: well detectable; IC50 (citrate plasma [1]; [10]): 760 nM; IC50 (citrate plasma [2]; [11]): 2270 nM; IC50 (thrombin; [12]): 200 nM; IC50 (isolated human fXa; [13]): 910 nM; fXa IC50, times lower than C1 (isolated human fXa; text b89): 10 times
